# US20240260575A1, “AGRICULTURAL AND HORTICULTURAL FUNGICIDAL COMPOSITION” (Nippon Soda Co., Ltd., priority 2021, published 2024)
# Columns and labels:
# [1] = system: cucumber powdery mildew pathogen (Sphaerotheca fuliginea); experiment: Cucumber powdery mildew control test; type: in vivo; parameters: scale not given here; details: for control value: sprayed onto cucumber seedlings
# Excerpt: (Test Example) Cucumber Powdery Mildew Control Test 1) Preparation of Drug Solution for Test […] The other components (II) were each formulated into an aqueous solution or suspension having a predetermined concentration. 2) Test A mixed solution of a component (I) and a component (II) at a predetermined concentration was sprayed onto cucumber seedlings (variety: “Shimo-shirazu, creeping type”, cotyledon stage). After natural drying at room temperature, conidiospores of a cucumber powdery mildew pathogen (Sphaerotheca fuliginea) were inoculated by blushing off, and the seedlings were kept in a thermostatic room at 20° C. using a 12 hour light/dark cycle for 7 to 10 days. The states of lesion development on leaves were examined by comparing with that for the untreated case, and the control values were determined. The test was duplicately carried out. The results are shown in Tables 8 to 12 together with expected values calculated as follows. Expected values were calculated by using Colby's equation: […] Here, E denotes an expected value of a control value, M denotes a control value in using a component (I) alone, and N denotes a control value in using a component (II) alone. If the actually measured control value of a composition of a component (I) and a component (II) is higher than the expected value, E, the composition of a component (I) and a component (II) is said to have exerted synergistic effect.
# [2] = system: gray mold pathogen (Botrytis cinerea); experiment: Gray mold antimicrobial test (growth inhibition rate); type: cell-based; parameters: growth inhibition rate, component (II) alone: concentration or dose not given beside the values
# Description: (Test Example) Gray Mold Antimicrobial Test (Growth Inhibition Rate)
# Conidiospores of a gray mold pathogen (Botrytis cinerea) were added to and dispersed in a yeast extract sucrose medium, and a component (I) and a component (II) dissolved in dimethyl sulfoxide at predetermined concentrations were further added and mixed thereto, and the resulting solution was dispensed onto a 96-well microplate and cultivated in the dark at 20° C. for 3 to 5 days. After the cultivation, the turbidity at a wavelength of 405 nm was measured by a microplate reader and compared with that in the untreated case to determine the growth inhibition rate (%) for the gray mold pathogen. The test was duplicately carried out. The results are shown in Tables 3 to 7 together with expected values calculated as follows.
# Expected values were calculated by using Colby's equation: E=M+N−MN/100. Here, E denotes an expected value (%) of a growth inhibition rate, M denotes a growth inhibition rate (%) in using a component (I) alone, and N denotes a growth inhibition rate (%) in using a component (II) alone.
# If the actually measured growth inhibition rate (%) of a composition of a component (I) and a component (II) is higher than the expected value, E, the composition of a component (I) and a component (II) is said to have exerted synergistic effect.
compound,measurement,setting,value
COc1ccc(F)cc1C(O)Cn1cc(/C(C)=N/OC(C)C)c(=O)n(C[C@@H](NC(=O)C(C)(C)C)C(C)C)c1=O (stereo partly shown) [Compound 2],control value,"[1]; Table 9, Examination 1, Compound 2 0.4 ppm alone or mixed with component (II)",67
same,control value,"[1]; Table 9, Examination 2, Compound 2 0.4 ppm alone or mixed with component (II)",71
same,control value,"[1]; Table 9, Examination 3, Compound 2 0.4 ppm alone or mixed with component (II)",67
same,control value,"[1]; Table 9, Examination 4, Compound 2 0.4 ppm alone or mixed with component (II)",67
same,control value,"[1]; Table 9, Examination 5, Compound 2 0.4 ppm alone or mixed with component (II)",59
same,control value,"[1]; Table 9, Examination 6, Compound 2 0.4 ppm alone or mixed with component (II)",67
same,growth inhibition rate,"[2]; Table 4, Examination 1, Compound 2 (0.25 or 0.063 ppm) alone or mixed with component (II)",69%
same,growth inhibition rate,"[2]; Table 4, Examination 2, Compound 2 (0.25 or 0.063 ppm) alone or mixed with component (II)",53%
same,growth inhibition rate,"[2]; Table 4, Examination 3, Compound 2 (0.25 or 0.063 ppm) alone or mixed with component (II)",46%
same,growth inhibition rate,"[2]; Table 4, Examination 4, Compound 2 (0.25 or 0.063 ppm) alone or mixed with component (II)",41%
same,growth inhibition rate,"[2]; Table 4, Examination 5, Compound 2 (0.25 or 0.063 ppm) alone or mixed with component (II)",35%
"COc1ccc(F)cc1C(O)Cn1cc(/C(C)=N/OC(C)C)c(=O)n(C[C@H](C)NC(=O)C(C)C)c1=O (stereo partly drawn) [Compound 3, N-((2S)-1-(3-(2-(5-fluoro-2-methoxyphenyl)-2-hydroxyethyl)-5-((E)-1-(isopropoxyimino)ethyl)-2,6-dioxo-3,6-dihydropyrimidin-1(2H)-yl)propan-2-yl)isobutyramide]",control value,"[1]; Table 10, Examination 1, Compound 3 0.4 ppm alone or mixed with component (II)",72
same,control value,"[1]; Table 10, Examination 2, Compound 3 0.4 ppm alone or mixed with component (II)",68
same,control value,"[1]; Table 10, Examination 3, Compound 3 0.4 ppm alone or mixed with component (II)",56
same,control value,"[1]; Table 10, Examination 4, Compound 3 0.4 ppm alone or mixed with component (II)",61
same,control value,"[1]; Table 10, Examination 5, Compound 3 0.4 ppm alone or mixed with component (II)",34
same,control value,"[1]; Table 10, Examination 6, Compound 3 0.4 ppm alone or mixed with component (II)",67
same,control value,"[1]; Table 10, Examination 7, Compound 3 0.4 ppm alone or mixed with component (II)",67
same,growth inhibition rate,"[2]; Table 5, Examination 1, Compound 3 (0.25 or 0.063 ppm) alone or mixed with component (II)",74%
same,growth inhibition rate,"[2]; Table 5, Examination 2, Compound 3 (0.25 or 0.063 ppm) alone or mixed with component (II)",63%
same,growth inhibition rate,"[2]; Table 5, Examination 3, Compound 3 (0.25 or 0.063 ppm) alone or mixed with component (II)",48%
same,growth inhibition rate,"[2]; Table 5, Examination 4, Compound 3 (0.25 or 0.063 ppm) alone or mixed with component (II)",14%
COc1ccccc1C(O)Cn1cc(/C(C)=N/OC(C)C)c(=O)n(C[C@H](C)NC(=O)C(C)C)c1=O (stereo partly shown) [Compound 4],control value,"[1]; Table 11, Examination 1, Compound 4 0.4 ppm alone or mixed with component (II)",78
same,control value,"[1]; Table 11, Examination 2, Compound 4 0.4 ppm alone or mixed with component (II)",64
same,control value,"[1]; Table 11, Examination 3, Compound 4 0.4 ppm alone or mixed with component (II)",63
same,control value,"[1]; Table 11, Examination 4, Compound 4 0.4 ppm alone or mixed with component (II)",59
same,control value,"[1]; Table 11, Examination 5, Compound 4 0.4 ppm alone or mixed with component (II)",59
same,control value,"[1]; Table 11, Examination 6, Compound 4 0.4 ppm alone or mixed with component (II)",67
same,growth inhibition rate,"[2]; Table 6, Examination 1, Compound 4 (0.25 or 0.063 ppm) alone or mixed with component (II)",56%
same,growth inhibition rate,"[2]; Table 6, Examination 2, Compound 4 (0.25 or 0.063 ppm) alone or mixed with component (II)",31%
same,growth inhibition rate,"[2]; Table 6, Examination 3, Compound 4 (0.25 or 0.063 ppm) alone or mixed with component (II)",6%
same,growth inhibition rate,"[2]; Table 6, Examination 4, Compound 4 (0.25 or 0.063 ppm) alone or mixed with component (II)",4%
same,growth inhibition rate,"[2]; Table 6, Examination 5, Compound 4 (0.25 or 0.063 ppm) alone or mixed with component (II)",4%
same,growth inhibition rate,"[2]; Table 6, Examination 6, Compound 4 (0.25 or 0.063 ppm) alone or mixed with component (II)",3%
COc1ccc(F)cc1C(Cn1cc(/C(C)=N/OC(C)C)c(=O)n(C[C@H](C)NC(=O)C(C)C)c1=O)OCCC#N (stereo partly shown) [Compound 5],control value,"[1]; Table 12, Examination 1, Compound 5 0.4 ppm alone or mixed with component (II)",83
same,control value,"[1]; Table 12, Examination 2, Compound 5 0.4 ppm alone or mixed with component (II)",60
same,control value,"[1]; Table 12, Examination 3, Compound 5 0.4 ppm alone or mixed with component (II)",56
same,control value,"[1]; Table 12, Examination 4, Compound 5 0.4 ppm alone or mixed with component (II)",50
same,control value,"[1]; Table 12, Examination 5, Compound 5 0.4 ppm alone or mixed with component (II)",67
same,control value,"[1]; Table 12, Examination 6, Compound 5 0.4 ppm alone or mixed with component (II)",50
same,control value,"[1]; Table 12, Examination 7, Compound 5 0.4 ppm alone or mixed with component (II)",67
same,growth inhibition rate,"[2]; Table 7, Examination 1, Compound 5 (0.25 or 0.063 ppm, head span unclear) alone or mixed with component (II)",61%
same,growth inhibition rate,"[2]; Table 7, Examination 2, Compound 5 (0.25 or 0.063 ppm, head span unclear) alone or mixed with component (II)",43%
same,growth inhibition rate,"[2]; Table 7, Examination 3, Compound 5 (0.25 or 0.063 ppm, head span unclear) alone or mixed with component (II)",13%
same,growth inhibition rate,"[2]; Table 7, Examination 4, Compound 5 (0.25 or 0.063 ppm, head span unclear) alone or mixed with component (II)",3%
same,growth inhibition rate,"[2]; Table 7, Examination 5, Compound 5 (0.25 or 0.063 ppm, head span unclear) alone or mixed with component (II)",3%
same,growth inhibition rate,"[2]; Table 7, Examination 6, Compound 5 (0.25 or 0.063 ppm, head span unclear) alone or mixed with component (II)",2%
CC(=O)O.CC(=O)O.CC(=O)O.NC(N)=NCCCCCCCCNCCCCCCCCN=C(N)N [Iminoctadine acetate],"control value, component (II) alone","[1]; Table 8, ppm or dilution rate: Thiophanate-methyl 1.6, Triflumizole 25, Cyflufenamid 1.6, Iminoctadine acetate 0.25, Iminoctadine albesilate 1, Picarbutrazox 2000, Ipflufenoquin 1, Bacillus subtilis ×250, Pseudomonas rhodesiae ×2000, Sodium hydrogen carbonate 250, Potassium bicarbonate 250, Orange oil 4000, Linalool 4000, Thymol 100, Neem oil 2000, Prothioconazole 1.6, Mancozeb 63, Mineral oil 500",0
same,"control value, component (II) alone","[1]; Table 9, ppm or dilution rate: Thiophanate-methyl 1.6, Triflumizole 25, Cyflufenamid 1.6, Iminoctadine acetate 0.25, Iminoctadine albesilate 1, Picarbutrazox 2000, Ipflufenoquin 1, Bacillus subtilis ×250, Pseudomonas rhodesiae ×2000, Sodium hydrogen carbonate 250, Potassium bicarbonate 250, Orange oil 1000, Linalool 4000, Thymol 100, Neem oil 2000, Prothioconazole 1.6, Mancozeb 63, Mineral oil 500",50
same,"control value, component (II) alone","[1]; Table 10, ppm or dilution rate: Thiophanate-methyl 1.6, Triflumizole 25, Cyflufenamid 1.6, Iminoctadine acetate 0.25, Iminoctadine albesilate 1, Picarbutrazox 2000, Ipflufenoquin 1, Bacillus subtilis ×1000, Pseudomonas rhodesiae ×2000, Sodium hydrogen carbonate 250, Potassium bicarbonate 250, Orange oil 1000, Linalool 4000, Thymol 100, Neem oil 2000, Prothioconazole 1.6, Mancozeb 63, Mineral oil 5",0
same,"control value, component (II) alone","[1]; Table 11, ppm or dilution rate: Thiophanate-methyl 1.6, Triflumizole 25, Cyflufenamid 1.6, Iminoctadine acetate 1, Iminoctadine albesilate 1, Picarbutrazox 2000, Ipflufenoquin 1, Bacillus subtilis ×1000, Pseudomonas rhodesiae ×2000, Sodium hydrogen carbonate 250, Potassium bicarbonate 250, Orange oil 1000, Linalool 4000, Thymol 100, Neem oil 2000, Prothioconazole 1.6, Mancozeb 63, Mineral oil 500",50
same,"control value, component (II) alone","[1]; Table 12, ppm or dilution rate: Thiophanate-methyl 1.6, Triflumizole 25, Cyflufenamid 1.6, Iminoctadine acetate 0.25, Iminoctadine albesilate 1, Picarbutrazox 2000, Ipflufenoquin 1, Bacillus subtilis ×1000, Pseudomonas rhodesiae ×2000, Sodium hydrogen carbonate 1000, Potassium bicarbonate 250, Orange oil 1000, Linalool 4000, Thymol 400, Neem oil 2000, Prothioconazole 1.6, Mancozeb 63, Mineral oil",17
same,"growth inhibition rate, component (II) alone","[2]; Table 3, ppm: Ipflufenoquin 10, Cyflufenamid 10, Thiophamate-methyl 0.4, Iminoctadine acetate 0.08, Iminoctadine albesilate 0.08, Triflumizole 0.0032, Picarbutrazox 0.08, Prothioconazole 0.0032, Mefentrifluconazole 0.00064, Cymoxanil 10, Fludioxonil 0.016, Metyltetraprole 0.4, Florylpicoxamid 0.08, Fluxapyroxad 0.08, Fluopyram 0.4, Potassium phosphite 10, Fipronil 2, Chlorantraniliprole 0.016, Aba",25%
same,"growth inhibition rate, component (II) alone","[2]; Table 4, ppm: Ipflufenoquin 10, Cyflufenamid 2, Thiophamate-methyl 0.4, Iminoctadine acetate 0.08, Iminoctadine albesilate 0.4, Picarbutrazox 10, Prothioconazole 0.0032, Mefentrifluconazole 0.0006, Cymoxanil 10, Fludioxonil 0.016, Metyltetraprole 10, Fluxapyroxad 0.016, Fluopyram 0.4, Potassium phosphite 10, Fipronil 2, Chlorantraniliprole 0.016, Abamectin 0.016, Sulfoxaflor 10, Tebufenozide 0.016",56%
same,"growth inhibition rate, component (II) alone","[2]; Table 7, ppm: Ipflufenoquin 0.08, Cyflufenamid 0.08, Thiophamate-methyl 2, Iminoctadine acetate 0.0001, Iminoctadine albesilate 0.4, Triflumizole 0.4, Prothioconazole 0.0032, Mefentrifluconazole 0.08, Cymoxanil 0.08, Captan 0.08, Fludioxonil 0.08, Metyltetraprole 0.0032, Florylpicoxamid 0.0006, Fluxapyroxad 0.016, Fluopyram 0.0032, Potassium phosphite 0.016, Fipronil 2, Chlorantraniliprole 0.016",0%
